How the values were obtained:
Protease = Protease (Human immunodeficiency virus 1, UniProt Q9YQ12); experiment: Inhibition of HIV1 wild type protease using Abz-Thr-Ile-Nle-p-nitro-Phe-Gln-Arg-NH2 as substrate after 5 mins by spectrophotometry
[1] = system: Human immunodeficiency virus 1; experiment: Resistance index, ratio of Ki for HIV1 protease V82A mutant to Ki for HIV1 wild type protease
[2] = biological target: Human immunodeficiency virus type 1 protease (Human immunodeficiency virus 1, UniProt Q72874, N88D); experiment: Inhibition of HIV1 protease N88D mutant using Abz-Thr-Ile-Nle-p-nitro-Phe-Gln-Arg-NH2 as substrate after 5 mins by spectrophotometry
[3] = system: Human immunodeficiency virus 1; experiment: Resistance index, ratio of Ki for HIV1 protease L76V mutant to Ki for HIV1 wild type protease
[4] = biological target: Human immunodeficiency virus type 1 protease (Human immunodeficiency virus 1, UniProt Q72874, V82A); experiment: Inhibition of HIV1 protease V82A mutant using Abz-Thr-Ile-Nle-p-nitro-Phe-Gln-Arg-NH2 as substrate after 5 mins by spectrophotometry
[5] = biological target: Human immunodeficiency virus type 1 protease (Human immunodeficiency virus 1, UniProt Q72874, L76V); experiment: Inhibition of HIV1 protease L76V mutant using Abz-Thr-Ile-Nle-p-nitro-Phe-Gln-Arg-NH2 as substrate after 5 mins by spectrophotometry
[6] = system: Human immunodeficiency virus 1; experiment: Resistance index, ratio of Ki for HIV1 protease I47V mutant to Ki for HIV1 wild type protease
[7] = biological target: Human immunodeficiency virus type 1 protease (Human immunodeficiency virus 1, UniProt Q72874, I47V); experiment: Inhibition of HIV1 protease I47V mutant using Abz-Thr-Ile-Nle-p-nitro-Phe-Gln-Arg-NH2 as substrate after 5 mins by spectrophotometry
[8] = system: Human immunodeficiency virus 1; experiment: Resistance index, ratio of Ki for HIV1 protease N88D mutant to Ki for HIV1 wild type protease

Protease, sequence (Q9YQ12 whole entry): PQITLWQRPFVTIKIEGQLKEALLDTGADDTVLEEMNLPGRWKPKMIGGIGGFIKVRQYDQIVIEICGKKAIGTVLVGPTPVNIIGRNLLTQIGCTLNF

**Q.** With `COc1ccc(S(=O)(=O)N(C[C@H]2CCC(=O)N2)C[C@@H](O)[C@H](Cc2ccccc2)NC(=O)O[C@@H]2C[C@@H]3CCO[C@@H]3C2)cc1` as the compound, how does the Ki (Protease) read?
**A.** 0.44 nM

**Q.** What about the Ratio Ki [1] of the same compound?
**A.** < 2

**Q.** And the Ki [2]?
**A.** 0.92 nM

**Q.** What about the Ratio Ki [3] of the same compound?
**A.** < 2

**Q.** And the Ki [4]?
**A.** 0.65 nM

**Q.** What about the Ki [5] of the same compound?
**A.** 0.8 nM

**Q.** What about the Ratio Ki [6] of the same compound?
**A.** < 2

**Q.** And the Ki [7]?
**A.** 0.46 nM

**Q.** What about the Ratio Ki [8] of the same compound?
**A.** < 2

— ChEMBL document CHEMBL2040774, “Potent antiviral HIV-1 protease inhibitor GRL-02031 adapts to the structures of drug resistant mutants with its P1'-pyrrolidinone ring” (J Med Chem, 2012)
